Where two headings read alike, the source gives them in different places.
Tests used:
Assay type in all cases: cell-based
[1] = system: PD1-ss+10aa/Gaussia Luciferase; experiment: Dox-Induced PD1-ss-Gluc Assay
How it was run: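 Compounds, diluted in DMSO/media with doxycycline, were added to cells plated a day earlier and kept at 37° C under 5% CO2. The cells stably express a Gaussia luciferase construct fused to PD1-ss+10aa, induced via the T-REx system. Unassigned stereochemistry means mixture data.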

[2] = system: TNFα-FL/Gaussia Luciferase; experiment: Dox Induced TNFα-FL-Gluc Assay
How it was run: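 Compounds were added in doxycycline-containing DMSO/media to cells plated the previous day and incubated at 37° C under 5% CO2. These cells stably express a TNFα-FL/Gaussia luciferase cDNA whose expression is under T-REx (Dox-inducible) control, selected with Hygromycin and Blasticidin.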

[3] = system: HER3-ss+4aa/Gaussia Luciferase; experiment: Dox-Induced Her3-ss-Gluc Assay
How it was run: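 Compounds, diluted in DMSO/media containing doxycycline, were incubated at 37° C., 5% CO2 with cells seeded one day earlier. The cells stably express HER3-ss+4aa/Gaussia luciferase under T-REx control. Where no stereochemistry is shown, data refer to the mixture of stereoisomers.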

[4] = system: IL-2-FL/Gaussia Luciferase; experiment: Dox Induced IL2-FL-Gluc Assay
How it was run: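 Compounds were added together with doxycycline in DMSO/media and incubated at 37° C., 5% CO2. The cells were a stably selected line carrying IL-2-FL/Gaussia luciferase under T-REx inducible control. Structures drawn without stereochemistry were tested as stereoisomer mixtures.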

[5] = system: human multiple myeloma cell line NCI-H929; experiment: H929 Cell Viability Assay; details: 48 hr, NCI-H929 cells, Celltiter-Glo, read-out: 48 hr H929 Viability Celltiter-Glo: Mean EC50
Method: Plates were incubated at 37° C., 5% CO2 for 48 hours. After 48 hours, Celltiter-Glo® (Promega) was added to each well and luciferase signal was quantified using Tecan Infinite M1000 Pro for cell viability determination.
For chemical structures that include one or more stereoisomers, but are illustrated without indicating stereochemistry, the assay data refers to a mixture of stereoisomers.

[6] = system: human multiple myeloma cell line U266B1; experiment: U266 Cell Viability Assay; details: U-266, 48 hr, U266B1 cells, Celltiter-Glo, read-out: 48 hr U266 Viability Celltiter-Glo: Mean EC50
How it was run: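 Viability measured by CellTiter-Glo luciferase signal after 48 h compound exposure (37 °C, 5% CO2) of U266B1 cells in 384-well format. Where stereochemistry is not shown, data refer to the stereoisomer mixture.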

[7] = 24 hr doxycycline induction, 293FRT/TO cells, Gaussia luciferase signal; read-out: 24 hr Dox Inducible PD1ssGluc 293FRT/TO: Mean IC50
[8] = 24 hr doxycycline induction, 293FRT/TO cells, Gaussia luciferase signal; read-out: 24 hr Dox Inducible TNFaFLGluc 293FRT/TO: Mean IC50
[9] = 24 hr doxycycline induction, 293FRT/TO cells, Gaussia luciferase signal; read-out: 24 hr Dox Inducible Her3(ss + 4)Gluc 293FRT/TO: Mean IC50
[10] = 24 hr doxycycline induction, 293FRT/TO cells, Gaussia luciferase signal; read-out: 24 hr Dox Inducible IL2FLGIuc 293FRT/TO: Mean IC50
[11] = 24 hr, doxycycline-induced, 293FRT/TO cells; read-out: 24 hr Dox Inducible PD1ssGluc 293FRT/TO: Mean IC50
[12] = 24 hr, doxycycline-induced, 293FRT/TO cells; read-out: 24 hr Dox Inducible TNFaFLGluc 293FRT/TO: Mean IC50
[13] = 24 hr, doxycycline-induced, 293FRT/TO cells; read-out: 24 hr Dox Inducible Her3(ss + 4)Gluc 293FRT/TO: Mean IC50
[14] = 24 hr, doxycycline-induced, 293FRT/TO cells; read-out: 24 hr Dox Inducible IL2FLGIuc 293FRT/TO: Mean IC50

Row | SMILES | IC50 [1, 7] | IC50 [2, 8] | IC50 [3, 9] | IC50 [4, 10] | EC50 [5] | EC50 [6] | IC50 [1, 11] | IC50 [2, 12] | IC50 [3, 13] | IC50 [4, 14] | IC50 ([1]; read-out: 24 hr Dox Inducible PD1ssGluc 293FRT/TO: Mean IC50; 24 hr, doxycycline-induced, 293FRT/TO cells) | IC50 ([2]; read-out: 24 hr Dox Inducible TNFaFLGluc 293FRT/TO: Mean IC50; 24 hr, doxycycline-induced, 293FRT/TO cells) | IC50 ([3]; read-out: 24 hr Dox Inducible Her3(ss + 4)Gluc 293FRT/TO: Mean IC50; 24 hr, doxycycline-induced, 293FRT/TO cells) | IC50 ([4]; read-out: 24 hr Dox Inducible IL2FLGIuc 293FRT/TO: Mean IC50; 24 hr, doxycycline-induced, 293FRT/TO cells)
1 | CCc1nc(NC(=O)c2cccn2Cc2ccccc2Cl)sc1C [Compound B7, 1-(2-chlorobenzyl)-N-(4-ethyl-5-methylthiazol-2-yl)-1H-pyrrole-2-carboxamide] | – | – | – | – | > 25000 nM | > 25000 nM | 9070 nM | > 25000 nM | 20000 nM | 24300 nM | – | – | – | –
2 | CC(C)OC(C)(C)c1csc(NC(=O)c2cccn2Cc2ccnc3ccccc23)n1 [Compound A90, N-(4-(2-isopropoxypropan-2-yl)thiazol-2-yl)-1-(quinolin-4-ylmethyl)-1H-pyrrole-2-carboxamide] | 10000 nM | > 25000 nM | > 25000 nM | > 25000 nM | 16900 nM | > 25000 nM | – | – | – | – | – | – | – | –
3 | CC(C)OC(C)(C)c1csc(NC(=O)c2nccn2Cc2ccncc2)n1 [Compound A108, N-(4-(2-isopropoxypropan-2-yl)thiazol-2-yl)-1-(pyridin-4-ylmethyl)-1H-imidazole-2-carboxamide] | > 25000 nM | > 25000 nM | > 25000 nM | 7270 nM | > 25000 nM | > 25000 nM | – | – | – | – | – | – | – | –
4 | CC(C)OC(C)(C)c1csc(NC(=O)c2cncn2Cc2ccncc2)n1 [Compound A104, N-(4-(2-isopropoxypropan-2-yl)thiazol-2-yl)-1-(pyridin-4-ylmethyl)-1H-imidazole-5-carboxamide] | > 25000 nM | > 25000 nM | > 25000 nM | > 25000 nM | > 25000 nM | > 25000 nM | – | – | – | – | – | – | – | –
5 | CC(C)OC(C)(C)c1csc(NC(=O)c2cccn2Cc2ccncc2F)n1 [Compound A25, 1-((3-fluoropyridin-4-yl)methyl)-N-(4-(2-isopropoxypropan-2-yl)thiazol-2-yl)-1H-pyrrole-2-carboxamide] | 314 nM | 9980 nM | 692 nM | 490 nM | > 25000 nM | > 25000 nM | – | – | – | – | – | – | – | –
6 | O=C(Nc1nc([C@H]2C[C@H](c3ccccn3)C2)cs1)c1cccn1Cc1ccncc1 [Compound A350] | – | – | – | – | > 25000 nM | > 25000 nM | 707 nM | 14900 nM | 2390 nM | > 25000 nM | – | – | – | –
7 | Cc1ccn(Cc2ccncc2)c1C(=O)Nc1nc(C(C)(C)OC(C)C)cs1 [Compound A88, N-(4-(2-isopropoxypropan-2-yl)thiazol-2-yl)-3-methyl-1-(pyridin-4-ylmethyl)-1H-pyrrole-2-carboxamide] | 9650 nM | > 25000 nM | > 25000 nM | > 25000 nM | > 25000 nM | > 25000 nM | – | – | – | – | – | – | – | –
8 | O=C(Nc1nc(C2CCC(c3ccccc3)O2)cs1)c1cccn1Cc1ccncc1 (stereo not drawn) [Compound A310, N-(4-(5-phenyltetrahydrofuran-2-yl)thiazol-2-yl)-1-(pyridin-4-ylmethyl)-1H-pyrrole-2-carboxamide] | – | – | – | – | > 25000 nM | > 25000 nM | – | – | – | – | 2120 nM | 24600 nM | 5440 nM | 6990 nM
9 | O=C(Nc1nc(/C=C/C2CCOCC2)cs1)c1cccn1Cc1ccncc1 [Compound A153, 1-(pyridin-4-ylmethyl)-N-(4-(2-(tetrahydro-2H-pyran-4-yl)vinyl)thiazol-2-yl)-1H-pyrrole-2-carboxamide] | 902 nM | > 25000 nM | 1550 nM | 4070 nM | > 25000 nM | > 25000 nM | – | – | – | – | – | – | – | –
10 | CN(C)Cc1csc(NC(=O)c2cccn2Cc2ccncc2)n1 [Compound B19] | – | – | – | – | > 25000 nM | > 25000 nM | > 25000 nM | > 25000 nM | > 25000 nM | > 25000 nM | – | – | – | –
11 | CC(C)c1cnc(NC(=O)c2cccn2Cc2ccncc2)s1 [Compound A55] | 1390 nM | > 25000 nM | 3160 nM | 3990 nM | > 25000 nM | > 25000 nM | – | – | – | – | – | – | – | –

These reach a lower EC50 [5]. Values come first.

Row | IC50 [1, 7] | IC50 [2, 8] | IC50 [3, 9] | IC50 [4, 10] | EC50 [5] | EC50 [6] | IC50 [1, 11] | IC50 [2, 12] | IC50 [3, 13] | IC50 [4, 14] | SMILES | IC50 ([1]; read-out: 24 hr Dox Inducible PD1ssGluc 293FRT/TO: Mean IC50; 24 hr, doxycycline-induced, 293FRT/TO cells) | IC50 ([2]; read-out: 24 hr Dox Inducible TNFaFLGluc 293FRT/TO: Mean IC50; 24 hr, doxycycline-induced, 293FRT/TO cells) | IC50 ([3]; read-out: 24 hr Dox Inducible Her3(ss + 4)Gluc 293FRT/TO: Mean IC50; 24 hr, doxycycline-induced, 293FRT/TO cells) | IC50 ([4]; read-out: 24 hr Dox Inducible IL2FLGIuc 293FRT/TO: Mean IC50; 24 hr, doxycycline-induced, 293FRT/TO cells)
12 | 88 nM | 1160 nM | 181 nM | 376 nM | 5060 nM | > 25000 nM | – | – | – | – | O=C(Nc1nc(C2CC(c3ccccc3)C2)cs1)c1cccn1CCCc1ccncc1 (stereo not drawn) [Compound A287] | – | – | – | –
13 | – | – | – | – | 12500 nM | > 25000 nM | 364 nM | 6620 nM | 1260 nM | 1700 nM | O=C(Nc1nc([C@H]2C[C@@H](c3ccccn3)C2)cs1)c1cccn1Cc1ccncc1 [Compound A349] | – | – | – | –
14 | – | – | – | – | 381 nM | 16500 nM | 9 nM | 105 nM | 12 nM | 14 nM | O=C(Nc1nc([C@H]2CCCN2c2ccc3c(c2)OC(F)(F)O3)cs1)c1cccn1Cc1ccncc1 [Compound A328] | – | – | – | –
15 | 150 nM | 1200 nM | 417 nM | 744 nM | 8850 nM | 9340 nM | – | – | – | – | O=C(Nc1nc(C#Cc2ccccc2)cs1)c1cccn1Cc1ccncc1 [Compound A132] | – | – | – | –
16 | 24 nM | 401 nM | 55 nM | 93 nM | 1880 nM | > 25000 nM | – | – | – | – | C[C@H](OC(C)(C)c1csc(NC(=O)c2cccn2Cc2ccncc2)n1)c1ccccc1 [Compound A1, (S)-N-(4-(2-(1-phenylethoxy)propan-2-yl)thiazol-2-yl)-1-(pyridin-4-ylmethyl)-1H-pyrrole-2-carboxamide] | – | – | – | –
17 | 105 nM | 1580 nM | 195 nM | 158 nM | 15600 nM | > 25000 nM | – | – | – | – | CC(C)(OC1CCCCC1)c1csc(NC(=O)c2cccn2Cc2ccncc2)n1 [Compound A10, N-(4-(2-(cyclohexyloxy)propan-2-yl)thiazol-2-yl)-1-(pyridin-4-ylmethyl)-1H-pyrrole-2-carboxamide] | – | – | – | –
18 | – | – | – | – | 15100 nM | > 25000 nM | 16 nM | 4490 nM | 469 nM | 999 nM | O=C(Nc1nc(/C=C/c2ccc(OC(F)(F)F)cn2)cs1)c1cccn1Cc1ccncc1 [Compound A327] | – | – | – | –
19 | – | – | – | – | 3620 nM | > 25000 nM | 26 nM | 206 nM | 46 nM | 58 nM | CO[C@@H]1C[C@H](c2csc(NC(=O)c3cccn3Cc3ccncc3)n2)N(c2ccccc2)C1 [Compound A325] | – | – | – | –
20 | 46 nM | 541 nM | 88 nM | 78 nM | 2170 nM | 6220 nM | – | – | – | – | C[C@H](OC(C)(C)c1csc(NC(=O)c2cccn2CCCc2ccncc2)n1)c1ccccc1 [Compound A6, (S)-N-(4-(2-(1-phenylethoxy)propan-2-yl)thiazol-2-yl)-1-(3-(pyridin-4-yl)propyl)-1H-pyrrole-2-carboxamide] | – | – | – | –
21 | 134 nM | 2870 nM | 523 nM | 1070 nM | 5280 nM | 10900 nM | – | – | – | – | O=C(Nc1nc(/C=C/c2ccccc2Cl)cs1)c1cccn1Cc1ccncc1 [Compound A161, N-(4-(2-chlorostyryl)thiazol-2-yl)-1-(pyridin-4-ylmethyl)-1H-pyrrole-2-carboxamide] | – | – | – | –
22 | – | – | – | – | 5000 nM | > 25000 nM | 59 nM | 308 nM | 201 nM | 126 nM | O=C(Nc1nc([C@H]2C[C@H](O)CN2c2ccccc2)cs1)c1cccn1Cc1ccncc1 [Compound A326] | – | – | – | –
